US10517961B2, “Drug formulation based on particulates comprising polysaccharide-vitamin conjugate” (ZY Therapeutics, Inc., priority 2015, dated 2019)

Test system: human non-small lung cancer cells
Assay: In vitro cytotoxicity
Assay type: cell-based
Settings: 72 hrs, cell survival ratio

CC(=O)O[C@H]1C(=O)[C@@]2(C)[C@H]([C@H](OC(=O)c3ccccc3)[C@]3(O)C[C@H](OC(=O)[C@H](O)[C@@H](NC(=O)c4ccccc4)c4ccccc4)C(C)=C1C3(C)C)[C@]1(OC(C)=O)CO[C@@H]1C[C@@H]2O [paclitaxel]
IC50: ~10 nM
